How the values were obtained:
Assay in all cases: biochemical
Parameters in all cases: Invitrogen kinase panel: Z'Lyte activity (ATP at Km) or LanthaScreen competitive ATP-site binding, percent inhibition
CDK1/cyclinB = CDK1/cyclinB (Homo sapiens, UniProt P06493)
CDK2/cyclinA = CDK2/cyclinA (Homo sapiens, UniProt P24941)
CDK5/p25 = target: T1, CDK5/p25 (Homo sapiens, UniProt Q00535)
T1 construct: p25

CSK = CSK (Homo sapiens, UniProt P41240)
ErbB4 = ErbB4 (Homo sapiens, UniProt Q15303)
JNK2 = target: T2, JNK2 (Homo sapiens, UniProt P45984)
T2 construct: gene MAPK9
T2 sequence (P45984 whole entry): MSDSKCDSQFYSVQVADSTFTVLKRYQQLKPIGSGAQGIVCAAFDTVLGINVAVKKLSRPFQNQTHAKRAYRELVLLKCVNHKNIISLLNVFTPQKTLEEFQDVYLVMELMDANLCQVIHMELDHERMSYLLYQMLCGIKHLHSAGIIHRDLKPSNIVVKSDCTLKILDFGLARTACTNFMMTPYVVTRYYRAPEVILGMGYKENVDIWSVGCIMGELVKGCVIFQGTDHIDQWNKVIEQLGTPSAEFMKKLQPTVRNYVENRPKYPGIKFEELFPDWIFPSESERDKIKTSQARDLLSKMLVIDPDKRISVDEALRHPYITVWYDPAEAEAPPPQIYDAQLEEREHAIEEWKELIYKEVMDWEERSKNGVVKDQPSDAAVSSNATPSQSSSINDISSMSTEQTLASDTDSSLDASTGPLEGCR

PAK1 = PAK1 (Homo sapiens, UniProt Q13153)
Sequence of PAK1 (Q13153 whole entry): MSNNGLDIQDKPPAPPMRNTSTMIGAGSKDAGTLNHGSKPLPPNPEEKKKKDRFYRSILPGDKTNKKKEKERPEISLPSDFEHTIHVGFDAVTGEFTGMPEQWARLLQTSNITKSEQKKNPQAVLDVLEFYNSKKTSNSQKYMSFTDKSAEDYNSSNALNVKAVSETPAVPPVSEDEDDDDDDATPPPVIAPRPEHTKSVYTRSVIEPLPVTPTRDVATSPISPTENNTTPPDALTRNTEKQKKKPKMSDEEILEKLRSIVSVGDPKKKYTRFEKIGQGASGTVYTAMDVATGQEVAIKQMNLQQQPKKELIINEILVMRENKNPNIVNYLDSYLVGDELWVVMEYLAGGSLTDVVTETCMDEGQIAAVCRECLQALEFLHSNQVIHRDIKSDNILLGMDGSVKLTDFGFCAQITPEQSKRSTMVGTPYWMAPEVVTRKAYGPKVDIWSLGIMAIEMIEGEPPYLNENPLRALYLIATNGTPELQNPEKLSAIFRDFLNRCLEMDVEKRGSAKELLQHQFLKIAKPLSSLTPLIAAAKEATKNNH

PKC_zeta = target: T3, PKC_zeta (Homo sapiens, UniProt Q05513)
T3 construct: gene PRKCZ
T3 sequence (Q05513 1-592): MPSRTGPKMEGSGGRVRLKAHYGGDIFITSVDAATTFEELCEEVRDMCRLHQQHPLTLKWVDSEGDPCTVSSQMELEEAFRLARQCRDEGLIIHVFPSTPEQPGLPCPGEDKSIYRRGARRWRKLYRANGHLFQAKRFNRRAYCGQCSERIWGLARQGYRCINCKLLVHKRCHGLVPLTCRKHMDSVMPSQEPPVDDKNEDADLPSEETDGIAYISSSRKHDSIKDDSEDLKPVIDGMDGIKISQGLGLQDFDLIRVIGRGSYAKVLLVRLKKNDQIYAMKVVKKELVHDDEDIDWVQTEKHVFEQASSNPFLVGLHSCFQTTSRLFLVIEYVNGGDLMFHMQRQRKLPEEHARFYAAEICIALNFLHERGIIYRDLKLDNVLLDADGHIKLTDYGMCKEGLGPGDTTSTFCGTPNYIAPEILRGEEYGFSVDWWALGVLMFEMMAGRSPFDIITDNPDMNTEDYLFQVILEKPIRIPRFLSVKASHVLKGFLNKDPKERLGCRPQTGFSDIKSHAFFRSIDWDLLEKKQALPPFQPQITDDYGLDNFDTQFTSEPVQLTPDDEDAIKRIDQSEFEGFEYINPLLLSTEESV

TBK1 = target: T4, TBK1 (Homo sapiens, UniProt Q9UHD2)
T4 sequence (Q9UHD2 1-729): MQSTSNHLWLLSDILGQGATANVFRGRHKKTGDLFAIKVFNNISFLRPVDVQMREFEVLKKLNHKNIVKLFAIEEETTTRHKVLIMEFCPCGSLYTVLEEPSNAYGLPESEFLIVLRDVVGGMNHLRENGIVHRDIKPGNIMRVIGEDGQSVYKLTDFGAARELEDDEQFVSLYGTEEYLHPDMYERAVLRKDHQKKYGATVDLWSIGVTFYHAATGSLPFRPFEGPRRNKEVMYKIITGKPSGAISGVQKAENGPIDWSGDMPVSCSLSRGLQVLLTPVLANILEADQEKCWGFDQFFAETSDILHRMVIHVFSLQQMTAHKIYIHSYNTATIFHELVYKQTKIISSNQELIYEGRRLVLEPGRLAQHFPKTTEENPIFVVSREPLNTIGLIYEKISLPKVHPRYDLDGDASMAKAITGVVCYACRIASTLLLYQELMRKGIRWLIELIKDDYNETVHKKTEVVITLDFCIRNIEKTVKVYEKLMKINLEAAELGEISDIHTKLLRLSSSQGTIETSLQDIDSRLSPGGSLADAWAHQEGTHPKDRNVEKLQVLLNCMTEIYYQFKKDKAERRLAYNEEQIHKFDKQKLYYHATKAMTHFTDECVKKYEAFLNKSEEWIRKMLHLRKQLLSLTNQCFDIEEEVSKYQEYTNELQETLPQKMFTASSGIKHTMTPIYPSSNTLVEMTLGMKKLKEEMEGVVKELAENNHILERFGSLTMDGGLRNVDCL

TXK = TXK (Homo sapiens, UniProt P42681)
Sequence of TXK (P42681 whole entry): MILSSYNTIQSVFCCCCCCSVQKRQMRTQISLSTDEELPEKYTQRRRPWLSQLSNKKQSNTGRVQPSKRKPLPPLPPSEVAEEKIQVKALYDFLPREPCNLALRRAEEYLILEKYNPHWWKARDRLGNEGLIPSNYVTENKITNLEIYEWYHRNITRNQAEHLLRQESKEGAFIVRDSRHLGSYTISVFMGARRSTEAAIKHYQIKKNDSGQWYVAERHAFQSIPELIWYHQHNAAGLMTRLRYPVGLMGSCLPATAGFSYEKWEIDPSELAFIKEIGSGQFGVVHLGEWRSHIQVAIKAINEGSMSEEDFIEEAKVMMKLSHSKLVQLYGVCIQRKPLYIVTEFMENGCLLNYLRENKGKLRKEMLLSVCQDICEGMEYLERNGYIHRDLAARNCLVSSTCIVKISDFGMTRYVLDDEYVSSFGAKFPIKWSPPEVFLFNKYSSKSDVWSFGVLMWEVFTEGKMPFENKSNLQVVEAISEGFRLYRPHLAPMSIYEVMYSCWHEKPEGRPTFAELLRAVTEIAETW

LTK = LTK (Homo sapiens, UniProt P29376)
Text: (§1) We set out to identify allosteric activators of IRE1 RNase by screening internal compound libraries for binding to the kinase, using a published ATP-competitive TR-FRET assay. We then tested kinase binders to assess RNase modulation in an IRE1-specific kinetic RNA cleavage assay that uses the cytoplasmic construct IRE1-LKR (Q470-L977) (Supplementary Fig. 1a). […] Next, we tested these compounds in KMS-11 multiple myeloma cells, known to express functional IRE1 and strongly depend on the IRE1 pathway due to hyper-production of immunoglobulins in the ER[31]. We measured mRNA levels of XBP1s and the well-established RIDD target DGAT2[22] (Fig. 1c and Supplementary Fig. 1c, respectively) using a branched DNA (bDNA) assay. […] Importantly, neither G-9807 nor G-1749 inhibit PERK (Supplementary Table 1).

STK33 = STK33 (Homo sapiens, UniProt Q9BYT3)
Sequence of STK33 (Q9BYT3 whole entry): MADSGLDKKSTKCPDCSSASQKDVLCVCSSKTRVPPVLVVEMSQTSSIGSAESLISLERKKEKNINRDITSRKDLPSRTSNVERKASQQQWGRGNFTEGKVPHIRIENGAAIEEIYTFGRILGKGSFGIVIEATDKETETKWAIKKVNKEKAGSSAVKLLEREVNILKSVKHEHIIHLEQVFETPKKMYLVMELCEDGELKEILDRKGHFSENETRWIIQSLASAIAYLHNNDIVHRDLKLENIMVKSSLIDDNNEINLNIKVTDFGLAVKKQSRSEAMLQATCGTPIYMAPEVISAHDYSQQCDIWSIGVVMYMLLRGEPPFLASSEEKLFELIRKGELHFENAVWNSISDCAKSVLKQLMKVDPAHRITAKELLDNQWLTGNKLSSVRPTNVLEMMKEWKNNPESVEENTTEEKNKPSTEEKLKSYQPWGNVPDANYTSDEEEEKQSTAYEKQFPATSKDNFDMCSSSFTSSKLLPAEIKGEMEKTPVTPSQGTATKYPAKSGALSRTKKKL
Text: as §1

Sequence of CDK1/cyclinB (P06493 whole entry): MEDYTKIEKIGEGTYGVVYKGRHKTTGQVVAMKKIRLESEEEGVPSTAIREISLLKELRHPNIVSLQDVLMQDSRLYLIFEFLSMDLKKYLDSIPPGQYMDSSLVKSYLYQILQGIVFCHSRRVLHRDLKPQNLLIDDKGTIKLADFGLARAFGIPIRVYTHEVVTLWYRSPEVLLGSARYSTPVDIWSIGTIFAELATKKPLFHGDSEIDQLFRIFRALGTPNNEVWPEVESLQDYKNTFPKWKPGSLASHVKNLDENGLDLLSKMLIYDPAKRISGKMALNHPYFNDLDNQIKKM
Sequence of CDK1/cyclinB (P14635 whole entry partner): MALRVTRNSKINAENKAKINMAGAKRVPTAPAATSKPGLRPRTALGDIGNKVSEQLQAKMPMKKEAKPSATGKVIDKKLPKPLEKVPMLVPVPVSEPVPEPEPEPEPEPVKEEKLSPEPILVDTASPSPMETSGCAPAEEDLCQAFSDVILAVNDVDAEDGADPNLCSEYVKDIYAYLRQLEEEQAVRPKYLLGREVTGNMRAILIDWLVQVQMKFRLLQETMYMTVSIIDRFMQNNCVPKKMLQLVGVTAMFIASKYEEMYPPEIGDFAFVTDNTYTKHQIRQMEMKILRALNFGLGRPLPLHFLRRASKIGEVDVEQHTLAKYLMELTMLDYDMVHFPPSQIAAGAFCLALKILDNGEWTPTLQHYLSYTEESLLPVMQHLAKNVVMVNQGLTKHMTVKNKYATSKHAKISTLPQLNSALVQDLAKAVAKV
T1 sequence (Q00535 whole entry): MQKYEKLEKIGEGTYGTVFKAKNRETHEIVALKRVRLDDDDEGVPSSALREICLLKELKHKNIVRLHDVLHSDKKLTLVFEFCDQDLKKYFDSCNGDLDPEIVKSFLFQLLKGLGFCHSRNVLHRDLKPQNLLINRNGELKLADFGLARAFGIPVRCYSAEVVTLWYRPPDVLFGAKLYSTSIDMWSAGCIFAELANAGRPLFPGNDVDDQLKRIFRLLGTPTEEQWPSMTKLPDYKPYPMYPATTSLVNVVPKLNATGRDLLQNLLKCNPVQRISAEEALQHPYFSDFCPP
T1 sequence (Q15078 whole entry partner): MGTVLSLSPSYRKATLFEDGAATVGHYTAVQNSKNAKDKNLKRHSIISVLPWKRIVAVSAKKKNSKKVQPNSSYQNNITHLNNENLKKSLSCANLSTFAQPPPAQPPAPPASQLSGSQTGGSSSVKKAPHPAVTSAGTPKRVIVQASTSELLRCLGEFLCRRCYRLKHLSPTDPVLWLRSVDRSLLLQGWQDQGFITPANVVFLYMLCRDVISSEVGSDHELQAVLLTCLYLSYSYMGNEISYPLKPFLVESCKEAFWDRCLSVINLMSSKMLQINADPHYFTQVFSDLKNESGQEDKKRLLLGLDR
Sequence of ErbB4 (Q15303 whole entry): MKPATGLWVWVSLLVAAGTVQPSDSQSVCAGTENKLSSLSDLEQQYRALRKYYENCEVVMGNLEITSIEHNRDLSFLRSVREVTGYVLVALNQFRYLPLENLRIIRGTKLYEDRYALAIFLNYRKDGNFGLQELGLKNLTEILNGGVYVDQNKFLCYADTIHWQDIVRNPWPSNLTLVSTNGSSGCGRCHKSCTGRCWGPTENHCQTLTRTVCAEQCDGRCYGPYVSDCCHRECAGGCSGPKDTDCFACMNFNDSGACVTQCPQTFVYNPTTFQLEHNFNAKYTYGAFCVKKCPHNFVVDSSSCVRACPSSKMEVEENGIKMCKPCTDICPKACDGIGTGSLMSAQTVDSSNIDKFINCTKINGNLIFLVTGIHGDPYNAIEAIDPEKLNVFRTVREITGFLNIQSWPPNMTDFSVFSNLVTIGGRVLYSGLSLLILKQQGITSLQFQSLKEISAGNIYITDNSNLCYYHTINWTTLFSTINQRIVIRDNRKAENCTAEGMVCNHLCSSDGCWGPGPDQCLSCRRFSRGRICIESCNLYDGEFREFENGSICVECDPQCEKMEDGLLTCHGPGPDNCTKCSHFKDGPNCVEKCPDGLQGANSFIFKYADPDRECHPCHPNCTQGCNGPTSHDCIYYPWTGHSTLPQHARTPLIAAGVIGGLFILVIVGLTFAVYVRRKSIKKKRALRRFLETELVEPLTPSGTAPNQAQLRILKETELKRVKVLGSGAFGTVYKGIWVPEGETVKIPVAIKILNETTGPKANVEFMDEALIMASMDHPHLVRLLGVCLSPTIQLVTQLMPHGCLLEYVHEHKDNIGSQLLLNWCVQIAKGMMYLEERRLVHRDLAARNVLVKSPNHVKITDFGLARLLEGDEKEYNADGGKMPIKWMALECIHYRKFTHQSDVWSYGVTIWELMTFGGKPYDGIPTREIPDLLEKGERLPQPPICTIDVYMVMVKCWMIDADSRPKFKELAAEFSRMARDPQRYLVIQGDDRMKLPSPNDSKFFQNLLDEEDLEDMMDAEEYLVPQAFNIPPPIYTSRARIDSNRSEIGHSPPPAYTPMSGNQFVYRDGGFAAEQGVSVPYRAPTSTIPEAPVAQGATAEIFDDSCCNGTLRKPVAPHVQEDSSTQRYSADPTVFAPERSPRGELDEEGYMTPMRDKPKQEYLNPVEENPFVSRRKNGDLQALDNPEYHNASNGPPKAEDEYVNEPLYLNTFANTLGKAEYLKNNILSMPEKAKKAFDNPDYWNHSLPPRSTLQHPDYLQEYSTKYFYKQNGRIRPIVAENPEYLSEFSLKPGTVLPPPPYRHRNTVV

| inhibition at 1 µM (CDK1/cyclinB) [%] | inhibition at 1 µM (CDK2/cyclinA) [%] | inhibition at 1 µM (CDK5/p25) [%] | inhibition at 1 µM (JNK2) [%] | inhibition at 1 µM (PAK1) [%] | inhibition at 1 µM (PKC_zeta) [%] | inhibition at 1 µM (TBK1) [%] | Structure (SMILES) | inhibition at 1 µM (CSK) [%] | inhibition at 1 µM (ErbB4) [%] | inhibition at 1 µM (TXK) [%] | inhibition at 1 µM (LTK) [%] | inhibition at 1 µM (STK33) [%] |
| --- | --- | --- | --- | --- | --- | --- | --- | --- | --- | --- | --- | --- |
| 7.5 | 6 | 4 | 72 | 5 | 18.5 | 0 | CC#CC(=O)Nc1cccc2c(Oc3ncccc3-c3ccnc(N[C@H]4CCCNC4)n3)c(C)ccc12 [G-7658] | 5.5 | 11.5 | 2 | -4.5 | -3.5 |
| 96.5 | 100 | 100 | 91.3 | 85.7 | 34.2 | 95.7 | O=c1cc(-c2n[nH]c3ncc(-c4c(F)cccc4F)cc23)nc(N2CCC(O)CC2)[nH]1 [G-9807] | – | – | – | – | – |

| Structure (SMILES) | inhibition at 1 µM (CDK1/cyclinB) [%] | inhibition at 1 µM (CDK2/cyclinA) [%] | inhibition at 1 µM (CDK5/p25) [%] | inhibition at 1 µM (JNK2) [%] | inhibition at 1 µM (PAK1) [%] | inhibition at 1 µM (PKC_zeta) [%] | inhibition at 1 µM (TBK1) [%] | inhibition at 1 µM (CSK) [%] | inhibition at 1 µM (ErbB4) [%] | inhibition at 1 µM (TXK) [%] | inhibition at 1 µM (LTK) [%] | inhibition at 1 µM (STK33) [%] |
| --- | --- | --- | --- | --- | --- | --- | --- | --- | --- | --- | --- | --- |
| CCOC(=O)Nc1cccc2c(Oc3ncccc3-c3ccnc(N[C@H]4CCCNC4)n3)c(C)ccc12 [G-1749] | 6.5 | 6.5 | 3.5 | 79 | 7 | 12 | -0.5 | 6 | 4.5 | 2 | 1 | -4 |
